PubChem BioAssay AID1963424 (Molecular Pharmacology Branch, DTP, NCI, 2024)
Several values for one entry are separate records, joined by “and”; a condition that tells them apart may be missing. Identical values can stand only once.

Test system: 327498-153-R-J2-PDC complex spheroid growth, % test/control
Test: Anticancer human tumor 327498-153-R-J2-PDC patient-derived uterine carcinosarcoma cell line growth inhibition [Asc]
Settings: for viability, T/C: stronger effect = lower value
How it was run: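 Tumor cells were grown as complex spheroids with human endothelial cells (HUVEC) and human mesenchymal stem cells as stroma. Agents were tested alone and in combination, in half-log steps down from the clinical Cmax, or from 10 microM where Cmax was unknown.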
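Further: spheroids exposed to compound for 7 days after 3 days of growth.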
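Wherever viability, T/C is given: 100% = DMSO vehicle control wells.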

SMILES: Cn1ncnc1[C@H]1c2n[nH]c(=O)c3cc(F)cc(c23)N[C@@H]1c1ccc(F)cc1 + Cc1c(S(C)(=O)=O)c(-c2cc(F)cc(N3CCN(c4ccc(NS(=O)(=O)c5ccc(NC(CCN6CCC(C(=O)OCCCP(=O)(O)O)CC6)CSc6ccccc6)c(S(=O)(=O)C(F)(F)F)c5)cc4)CC3)c2)c(-c2ccc(Cl)cc2)n1C(C)C
- IC50 (curve of first compound, second compound 0.1 µM): 10.9 nM
- IC50 (curve of first compound, second compound 0.316 µM): 11.4 nM
- IC50 (curve of first compound, second compound 1 µM): 7.37 nM
- IC50 (curve of first compound, second compound 3.16 µM): 8.06 nM
- IC50 (curve of first compound, second compound 10 µM): 10.3 nM
- viability, T/C (second compound 0.1 µM, first compound 0.000316 µM): 103%
- viability, T/C (second compound 0.1 µM, first compound 0.001 µM): 97.1%
- viability, T/C (second compound 0.1 µM, first compound 0.00316 µM): 89.5%
- viability, T/C (second compound 0.1 µM, first compound 0.01 µM): 51.4%
- viability, T/C (second compound 0.1 µM, first compound 0.0316 µM): 19.3%
- viability, T/C (second compound 0.1 µM, first compound 0.1 µM): 7.05%
- viability, T/C (second compound 0.316 µM, first compound 0.000316 µM): 92.6%
- viability, T/C (second compound 0.316 µM, first compound 0.001 µM): 84.5%
- viability, T/C (second compound 0.316 µM, first compound 0.00316 µM): 86.9%
- viability, T/C (second compound 0.316 µM, first compound 0.01 µM): 54%
- viability, T/C (second compound 0.316 µM, first compound 0.0316 µM): 14.9%
- viability, T/C (second compound 0.316 µM, first compound 0.1 µM): 6.5%
- viability, T/C (second compound 1 µM, first compound 0.000316 µM): 99.3%
- viability, T/C (second compound 1 µM, first compound 0.001 µM): 104%
- viability, T/C (second compound 1 µM, first compound 0.00316 µM): 81.7%
- viability, T/C (second compound 1 µM, first compound 0.01 µM): 37.7%
- viability, T/C (second compound 1 µM, first compound 0.0316 µM): 15.3%
- viability, T/C (second compound 1 µM, first compound 0.1 µM): 5.39%
- viability, T/C (second compound 3.16 µM, first compound 0.000316 µM): 92.7%
- viability, T/C (second compound 3.16 µM, first compound 0.001 µM): 91.6%
- viability, T/C (second compound 3.16 µM, first compound 0.00316 µM): 80.3%
- viability, T/C (second compound 3.16 µM, first compound 0.01 µM): 42.2%
- viability, T/C (second compound 3.16 µM, first compound 0.0316 µM): 14.9%
- viability, T/C (second compound 3.16 µM, first compound 0.1 µM): 4.76%
- viability, T/C (second compound 10 µM, first compound 0.000316 µM): 174%
- viability, T/C (second compound 10 µM, first compound 0.001 µM): 178%
- viability, T/C (second compound 10 µM, first compound 0.00316 µM): 150%
- viability, T/C (second compound 10 µM, first compound 0.01 µM): 50.1%
- viability, T/C (second compound 10 µM, first compound 0.0316 µM): 18.2%
- viability, T/C (second compound 10 µM, first compound 0.1 µM): 5.74%

SMILES: COc1c(OCCCN2CCOCC2)ccc2c3n(c(=NC(=O)c4cnc(N)nc4)nc12)CCN3
- viability, T/C (compound 0.00316 µM): 93.8% and 96.5% and 105%
- viability, T/C (compound 0.01 µM): 92% and 91.4% and 97.5%
- viability, T/C (compound 0.0316 µM): 71.2% and 78.3% and 85.6%
- viability, T/C (compound 0.1 µM): 51.4% and 57.8% and 60.5%
- viability, T/C (compound 0.316 µM): 23.9% and 27.6% and 26.7%
- viability, T/C (compound 1 µM): 6.91% and 7.65% and 9.2%
- IC50 (curve of compound): 99.9 nM and 131 nM and 140 nM
